Measurements taken from patent publication US20140294729A1, “METHODS FOR IDENTIFICATION AND USE OF AGENTS TARGETING CANCER STEM CELLS” (Whitehead Institute for Biomedical Research, priority 2008, published 2014).
“Also recorded” adds a separate entry of the source. *1 amine or outer side, *2 acyl side, *3 side chain or, on linkers, in order; H or OH if unused. Where a SMILES comes first, the peptide text is derived from it. Bridges are numbered along the chain shown (N, C = ends). Roman numbers before positions name the chains, in order. [ ]: non-standard residue; d: D form. Actinocin(9to1) = Cc1c2oc3c(C)ccc(C(=O)[*:1])c3nc-2c(C(=O)[*:2])c(N)c1=O; NMeV = CN[C@H](C(=O)O)C(C)C; Sar = CNCC(=O)O

Experiments:
HMLEshEcad cells [1] = test: Dose-response viability of HMLEshCntrl vs HMLEshEcad cells (validation of hits, 384-well, Cell-Titer-Glo); type: cell-based, human; settings: FIG. 4A; for selective toxicity towards HMLEshEcad cells relative to HMLEshCntrl cells: dose response on retesting; for IC50 fold lower for HMLEshEcad cells vs HMLEshCntrl cells: 3 day treatment, 8 concentrations
Description: (§1) FIG. 4A depicts dose response curves of HMLEshCntrl (A, light gray curve) and HMLEshEcad (A, dark gray curve) cells treated with the 8 compounds identified during the initial screen. 1000 cells of each line were seeded onto 384 well plates and treated with 8 different concentrations of compounds within a 2.5 log range. The cell viability after 3 day treatment was measured by Cell-Titer-Glo. […] FIG. 4B depicts dose response curves of HMLEshCntrl (curve with square data points) and HMLE-Twist (curve with triangular data points) cells treated with the same compounds as in (A). Note that selectivity of Salinomycin, Abamectin, Etoposide and Nigericin (Top, Left-to-Right) is retained even though a different method of EMT induction is used. […] 1 Day after seeding DMSO, Salinomycin (1.25 or 5 μM) or Abamectin (0.25 or 1.25 μM) was added at the indicated concentration. As the GFP vector contains a Blasticidin resistance gene, we used Blasticidin treatment as a positive control for the expansion of GFP-expressing control HMLE cells. After 3 day incubation the mix population of cells were analyzed by flow cytometry and the percentage of GFP-positive cells were determined. […] FIG. 4D depicts dose response curves of transformed HMLERshCntrl (light gray line) and HMLERshEcad (dark gray lines) cells treated with Salinomycin and Abamectin. Dotted line denotes the 50% fraction surviving.
We pursued 8 of the 32 compounds for further study and evaluated their effects across a range of doses.
For each of these compounds, we evaluated the effect on cell viability across a series of doses for sibling cell lines either induced into or not induced into EMT.
Information about the general automated HTS protocol is available online at broad.harvard.edu/chembio/index.html. The assay was initiated by plating 40 μL of medium containing 1000 cells/well into white 384-well opaque-bottom plates (Nunc, Rochester, N.Y.) using an automated plate filler (Bio-Tek μFiller; Winsooki, Vt.) and allowing the cells to adhere for 24 hours. 100 nL of compound stock solutions in dmso was transferred from stock plates into the 384-well assay plates using an automated pin-based compound transfer robot (CyBio CyBi-Well vario; Woburn, Mass.). For most compounds the final concentration in each well was calculated to be 10 uM.
The screen was performed in duplicate. For negative controls, entire dmso-treated control plates were employed, in addition to dmso-only control wells that were incorporated into each compound assay plate. The cells were assayed for luciferase activity with the addition 20 ul of CellTiter-Glo Luminescent Cell Viability Assay solution (Promega). The luminescent signal from each plate was detected using an automated plate reader (Perkin-Elmer Envision 1; Wellesley, Mass.).
(§2) Individual compounds were purchased from Sigma and dissolved in DMSO with the exception of nigericin which was dissolved in 100% ethanol. Activity of the compounds were quantified by generating dose-response curves for HMLE-shCntrl, HMLE-shEcad and HMLE-Twist under the same cell density and culture conditions described for the initial screen, using the 384-well plate based system.

HMLEshEcad cells [2] = test: Resistance to cytotoxic agents, immortalized HMLEshCntrl vs HMLEshEcad (MTS viability); type: cell-based, human; settings: three concentrations, FIG. 2B
Description: (§3) FIGS. 2A-2D depict that passage through the EMT leads to resistance to conventional chemotherapy drugs. FIG. 2A depicts dose response curves of transformed HMLERshCntrl (light gray line) and HMLERshEcad (dark gray line) cells treated with Paclitaxel and Doxorubicin. Dotted line denotes the 50% fraction surviving. […] FIG. 2B depicts the response of immortalized cells to chemotherapy drugs. HMLEshCntrl and HMLEshEcad cells were treated with the indicated drugs at three concentrations for 3 days and assayed for viability using the MTS assay. While Doxorubucin, Actinomycin D, Paclitaxel and Campthotecin are chemotherapeutic drugs, Staurosporine is a general kinase inhibitor that potently induce apoptosis. FIGS. 2C and 2D depict paclitaxel treatment leads to selective expansion of a minority cell population that has undergone an EMT. Control HMLE cells and GFP expressing HMLEshEcad cells were mixed at a ratio of 20:1 and seeded onto 6-well plates in triplicate. DMSO or Paclitaxel at 2.5 nm or 10 nm concentration was added onto the mixed cell populations 1 day after seeding followed by a 3 day incubation. The number of GFP-positive cells at the end of treatment were analyzed by flow cytometry. […] Note the increase in GFP positivity from 5% to 14% upon […] Paclitaxel treatment.
However, we postulated that the differential drug sensitivity observed was, rather, a consequence of the respective differentiation states of the immortalized cells from which the cancer cell lines were derived. To directly examine this hypothesis, we treated HMLEsiGFP and HMLEsiEcad cells for a period of […] with a series of chemical compounds at 3 different concentrations each. Included in these compounds were the established chemotherapy drugs Doxorubicin, Paclitaxel, Actinomycin D, Camptothecin as well as a broad kinase inhibitor, Staurosporine.
(§4) Doxorubicin, paclitaxel, actinomycin D, campthotecin and staurosporine were purchased from Sigma and dissolved in dimethyl sulfoxide (dmso). 5000 cells in 100 ul of medium were plated per well in 96-well plates. 24 hrs after seeding, compounds at the indicated concentration were added to wells (5 wells per each concentration). Dmso treatment was used as negative control. Cell viability was measured after 72 hrs using the CellTiter96 AQueous Assay (Promega) according to manufacturer's instructions. Dose response curves were generated with GraphPad Prism software (GraphPad Software, Inc.).

HMLE-Twist cells [3] = test: Co-culture of GFP-expressing HMLE cells and unlabelled HMLE-Twist cells, FACS for GFP positivity; type: cell-based, human; settings: FIG. 4C; for GFP-positive fraction relative to DMSO-treated controls: GFP-labeled HMLE + unlabeled HMLE-Twist
Description: as §1
To examine the effects of salinomycin and abamectin treatment on heterogeneous populations of epithelial cells that have and epithelial cells that have not undergone EMT, we co-mixed GFP-labeled HMLE cells with unlabeled HMLE-Twist cells, treating the resulting co-cultures with compounds. As a positive control for this experiment we treated co-cultures with blasticidin, which selects for the differentiated HMLE-GFP cells, which harbor a blasticidin-resistance gene.
For the mix experiments, unlabelled and GFP-labeled cells were mixed at the indicated ratios and seeded onto 6-well plates. Triplicate wells were then treated with dmso or the compounds (paclitaxel, salinomycin, abamectin and blasticidin) for 48 hrs. The cells were washed with PBS, trypsinized and analyzed by FACS for GFP positivity.

HMLERshEcad cells [4] = test: Resistance to cytotoxic agents, transformed HMLERshCntrl vs HMLERshEcad dose response; type: cell-based, human; settings: FIG. 2A
Description: as §3
Since the HMLERsiEcad cells have a 100-fold increase in the frequency of cells capable of seeding tumors, we examined their response to two commonly used chemotherapy drugs, relative to HMLERsiGFP controls. We treated cultured HMLERsiGFP and HMLERsiEcad cells for a period of 3 days with either doxorubicin or paclitaxel, at various concentrations.
as §4

HMLE-Twist cells [5] = test: Dose-response viability of HMLEshCntrl vs HMLE-Twist cells; type: cell-based, human; settings: EMT induced by Twist, FIG. 4B
Description: as §1, §2

SUM159 cells = test: FACS of the CD44hi/CD24lo fraction in treated SUM159 cells; type: cell-based; settings: FIGS. 5C and 5D
Description: FIG. 5A depicts flow cytometry analysis of Sum159, MDA-MB-231 and T47D cell lines with respect to cell surface expression of CD44 and CD24. Note that while the majority of cells in Sum159 and MDA-MB-231 line contain large amounts of CSCs, T47D cells have very few such cells. FIG. 5B depicts dose response curves of Sum159, MDA-MB-231 and T47D cell treated with Salinomycin.
To further characterize the effects of compound treatment on cancer cells, we conducted FACS analyses on SUM159 cells treated with salinomycin, abamectin, taxol, or DMSO.
The anti-CD44 (clone G44-26) antibody conjugated to APC and the anti-CD24 antibody (clone ML5) conjugated to PE used for FACS analysis were obtained from BD Bioscience and used according to the manufacturer's instructions. Propidium Iodide (5 ug/ml) was included in the staining protocol to distinguish live cells.

HMLERshEcad cells [6] = test: Dose response of transformed HMLERshCntrl vs HMLERshEcad cells to screen hits; type: cell-based, human; settings: range of concentrations, FIG. 4D
Description: as §1

c1ccc2nc3ccccc3cc2c1 [Acridine]
selective toxicity towards HMLEshEcad cells relative to HMLEshCntrl cells (HMLEshEcad cells [1]): do not display such a behaviour

Clc1ccccc1C(c1ccccc1)(c1ccccc1)n1ccnc1 [Clotrimazole]
selective toxicity towards HMLEshEcad cells relative to HMLEshCntrl cells (HMLEshEcad cells [1]): do not display such a behaviour

Oc1cccc(O)c1 [Resorcinol]
selective toxicity towards HMLEshEcad cells relative to HMLEshCntrl cells (HMLEshEcad cells [1]): do not display such a behaviour

Cc1c2oc3c(C)ccc(C(=O)N[C@@H]4C(=O)N[C@H](C(C)C)C(=O)N5CCC[C@H]5C(=O)N(C)CC(=O)N(C)[C@@H](C(C)C)C(=O)O[C@@H]4C)c3nc-2c(C(=O)N[C@@H]2C(=O)N[C@H](C(C)C)C(=O)N3CCC[C@H]3C(=O)N(C)CC(=O)N(C)[C@@H](C(C)C)C(=O)O[C@@H]2C)c(N)c1=O [actinomycin D] (I: T[dV]P[Sar][NMeV] / II: T[dV]P[Sar][NMeV]; ester I:1-I:C, II:1-II:C; linker I:N-II:N via Actinocin(9to1))
resistance of HMLEshEcad cells relative to HMLEshCntrl control cells (HMLEshEcad cells [2]): resistant
resistance of HMLEshEcad cells relative to HMLEshCntrl control cells (HMLEshEcad cells [2]; listed as Actinomycin D): increased resistance

CN(CC[C@H](N)CC(=O)N[C@H]1C=C[C@H](n2ccc(N)nc2=O)O[C@@H]1C(=O)O)C(=N)N [blasticidin]
GFP-positive fraction relative to DMSO-treated controls (HMLE-Twist cells [3]): increase

CC[C@@]1(O)C(=O)OCc2c1cc1n(c2=O)Cc2cc3ccccc3nc2-1 [camptothecin]
resistance of HMLEshEcad cells relative to HMLEshCntrl control cells (HMLEshEcad cells [2]): resistant
resistance of HMLEshEcad cells relative to HMLEshCntrl control cells (HMLEshEcad cells [2]; listed as Camptothecin): increased resistance

COc1cccc2c1C(=O)c1c(O)c3c(c(O)c1C2=O)C[C@@](O)(C(=O)CO)C[C@@H]3O[C@H]1C[C@H](N)[C@H](O)[C@H](C)O1 [doxorubicin]
IC50 for HMLERsiEcad cells relative to IC50 for HMLERsiGFP cells (HMLERshEcad cells [4]; 3 days, various concentrations): significantly higher
resistance of HMLERshEcad cells compared to HMLERshCntrl cells (HMLERshEcad cells [4]): significantly more resistant
resistance of HMLERshEcad cells compared to HMLERshCntrl cells (HMLERshEcad cells [4]; listed as Doxorubicin): more resistant
resistance of HMLEshEcad cells relative to HMLEshCntrl control cells (HMLEshEcad cells [2]): increased resistance

CO[C@@H]1C[C@@H](C[C@H]2CC[C@H](C)[C@H]([C@@H](C)C(=O)O)O2)O[C@]2(O[C@](C)([C@H]3CC[C@@](C)([C@@H]4O[C@@H]([C@H]5O[C@@](O)(CO)[C@H](C)C[C@@H]5C)C[C@@H]4C)O3)C[C@H]2C)[C@@H]1C [nigericin]
IC50 fold lower for HMLEshEcad cells vs HMLEshCntrl cells (HMLEshEcad cells [1]): ~7 fold
selective toxicity towards HMLEshEcad cells relative to HMLEshCntrl cells (HMLEshEcad cells [1]): weaker selectivity; also recorded: modest selective toxicity
selective toxicity towards HMLEshEcad cells relative to HMLEshCntrl cells (HMLEshEcad cells [1]; listed as Nigericin): selective toxicity
selectivity for HMLE-Twist cells vs HMLEshCntrl; dose-response curves compared with HMLEshEcad (HMLE-Twist cells [5]): is retained

CN[C@@H]1C[C@H]2O[C@@](C)([C@@H]1OC)n1c3ccccc3c3c4c(c5c6ccccc6n2c5c31)C(=O)NC4 [staurosporine]
resistance of HMLEshEcad cells relative to HMLEshCntrl control cells (HMLEshEcad cells [2]): resistant
resistance of HMLEshEcad cells relative to HMLEshCntrl control cells (HMLEshEcad cells [2]; listed as Staurosporine): increased resistance

abamectin
IC50 fold lower for HMLEshEcad cells vs HMLEshCntrl cells (HMLEshEcad cells [1]): ~10 fold
selective toxicity towards HMLEshEcad cells relative to HMLEshCntrl cells (HMLEshEcad cells [1]): moderate to strong selectivity; also recorded: strong specificity
selective toxicity towards HMLEshEcad cells relative to HMLEshCntrl cells (HMLEshEcad cells [1]; listed as Abamectin): selective toxicity
percent of cells in the CD44hi/CD2410 fraction relative to DMSO controls (SUM159 cells): did not significantly alter
selectivity for HMLE-Twist cells vs HMLEshCntrl; dose-response curves compared with HMLEshEcad (HMLE-Twist cells [5]): is retained
GFP-positive fraction relative to DMSO-treated controls (HMLE-Twist cells [3]): increase
proportion of HMLETwist cells in co-culture with control cells (HMLE-Twist cells [3]; Salinomycin 1.25 or 5 μM, Abamectin 0.25 or 1.25 μM): dose-dependent decrease; also recorded: selection against the GFP-negative HMLE-twist cells
selective toxicity for HMLERshEcad (MT tumorigenic) cells (HMLERshEcad cells [6]): modest but selective toxicity
